Data taken from US10519134B2, “Pyrazole compounds and methods of making and using same” (Lundbeck La Jolla Research Center, Inc., priority 2015, dated 2019).

What was measured:
Type in all cases: biochemical
MAGL [1] = target: T1, MAGL (Homo sapiens, UniProt Q99685); experiment: In vitro competitive activity-based protein profiling (human), MAGL gel band
T1 construct: Proteomes (human prefrontal cortex or cell membrane fractions); from tissue; host or cells: human prefrontal cortex (or cell membrane fractions)
T1 sequence (Q99685 1-303): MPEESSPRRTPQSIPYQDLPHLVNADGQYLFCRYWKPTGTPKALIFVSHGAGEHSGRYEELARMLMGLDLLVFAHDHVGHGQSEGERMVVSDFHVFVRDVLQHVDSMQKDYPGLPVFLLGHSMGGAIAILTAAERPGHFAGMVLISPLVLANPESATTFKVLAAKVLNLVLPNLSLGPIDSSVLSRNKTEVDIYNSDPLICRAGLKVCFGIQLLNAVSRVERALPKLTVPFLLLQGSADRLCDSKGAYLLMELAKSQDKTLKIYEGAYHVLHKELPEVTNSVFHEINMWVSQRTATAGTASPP
Protocol: In Vitro Competitive Activity-Based Protein Profiling (Human).
Proteomes (human prefrontal cortex or cell membrane fractions) (50 μL, 1.0-2.0 mg/mL total protein concentration) were preincubated with varying concentrations of inhibitors at 37° C. After 30 min, FP-Rh or JW912 (1.0 μL, 50 μM in DMSO) was added and the mixture was incubated for another 30 min at room temperature. Reactions were quenched with SDS loading buffer (15 μL—4×) and run on SDS-PAGE. Following gel imaging, serine hydrolase activity was determined by measuring fluorescent intensity of gel bands corresponding to MAGL using ImageJ 1.49k software.

MAGL [2] = target: T2, MAGL (Mus musculus, UniProt O35678); experiment: In vitro competitive activity-based protein profiling (mouse), MAGL gel band; details: for inhibition at 1 µM: read-out: MAGL % inh. 1 μM; for IC50: mouse
T2 construct: Proteomes (mouse brain membrane fraction or cell lysates); from tissue; host or cells: mouse brain membrane fraction (or cell lysates)
T2 sequence (O35678 1-303): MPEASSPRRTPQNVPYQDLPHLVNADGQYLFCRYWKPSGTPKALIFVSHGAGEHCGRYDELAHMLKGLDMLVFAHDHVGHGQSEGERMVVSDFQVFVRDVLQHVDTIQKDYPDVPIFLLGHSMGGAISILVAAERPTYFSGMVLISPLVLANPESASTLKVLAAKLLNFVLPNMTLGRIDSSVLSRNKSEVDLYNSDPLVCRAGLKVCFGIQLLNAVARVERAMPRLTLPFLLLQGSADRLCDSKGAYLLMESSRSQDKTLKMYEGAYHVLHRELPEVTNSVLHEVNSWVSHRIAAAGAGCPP
In short: (§1)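 Mouse brain membrane proteome or cell lysate (1.0 mg/mL total protein) was preincubated with varying inhibitor concentrations for 30 min at 37 °C, then labelled for 30 min at 37 °C with FP-Rh or HT-01 (50 μM stock in DMSO). Activity was read as fluorescent band intensity after SDS-PAGE.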

FAAH = target: T3, FAAH (Mus musculus, UniProt O08914); experiment: In vitro competitive activity-based protein profiling (mouse), FAAH gel band; details: for inhibition at 1 µM: read-out: FAAH % inh. 1 μM; for IC50: mouse
T3 construct: Proteomes (mouse brain membrane fraction or cell lysates); from tissue; host or cells: mouse brain membrane fraction (or cell lysates)
T3 sequence (O08914 1-579): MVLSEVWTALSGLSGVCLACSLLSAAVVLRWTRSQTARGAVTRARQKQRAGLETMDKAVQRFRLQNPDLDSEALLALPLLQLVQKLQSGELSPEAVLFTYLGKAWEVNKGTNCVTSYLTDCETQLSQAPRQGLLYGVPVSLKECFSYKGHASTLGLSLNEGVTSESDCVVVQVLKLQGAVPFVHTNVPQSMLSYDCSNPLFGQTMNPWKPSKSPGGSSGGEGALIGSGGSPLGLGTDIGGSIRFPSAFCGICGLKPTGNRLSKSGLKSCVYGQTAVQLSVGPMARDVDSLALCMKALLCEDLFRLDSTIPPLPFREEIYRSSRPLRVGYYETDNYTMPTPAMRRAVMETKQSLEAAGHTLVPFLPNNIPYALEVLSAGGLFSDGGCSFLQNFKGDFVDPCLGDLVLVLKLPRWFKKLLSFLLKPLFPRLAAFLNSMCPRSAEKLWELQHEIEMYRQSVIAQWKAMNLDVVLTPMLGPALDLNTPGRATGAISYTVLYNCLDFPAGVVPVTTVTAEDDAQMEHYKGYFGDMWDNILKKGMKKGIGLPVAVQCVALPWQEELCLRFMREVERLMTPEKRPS
In short: as §1

SMILES	IC50 (MAGL [1])	inhibition at 1 µM (MAGL [2])	inhibition at 1 µM (FAAH)	IC50 (MAGL [2])	IC50 (FAAH)
CS(=O)(=O)Nc1ccn(C(=O)N2CCN(Cc3ccc(Cl)c(N4CC[C@H](O)C4)c3)CC2)n1 [Example 292, (S)-N-(1-(4-(4-chloro-3-(3-hydroxypyrrolidin-1-yl)benzyl)piperazine-1-carbonyl)-1H-pyrazol-3-yl) methanesulfonamide]	≤ 100 nM	≥ 75%	0 to 25%		
CS(=O)(=O)Nc1ccn(C(=O)N2CCN(Cc3ccc(C(F)(F)F)cc3N3C4CCC3COC4)CC2)n1 [Example 206, N-(1-(4-(2-(3-oxa-8-azabicyclo[3.2.1]octan-8-yl)-4-(trifluoromethyl)benzyl)piperazine-1-carbonyl)-1H-pyrazol-3-yl) methanesulfonamide]	≤ 100 nM	≥ 75%	0 to 25%		
CS(=O)(=O)Nc1ccn(C(=O)N2CCN(Cc3ccc(C(F)(F)F)cc3N3CCC(c4nnn[nH]4)CC3)CC2)n1 [Example 240, N-(1-(4-(2-(4-(1H-tetrazol-5-yl)piperidin-1-yl)-4-(trifluoromethyl)benzyl)piperazine-1-carbonyl)-1H-pyrazol-3-yl) methanesulfonamide]	100 to 1000 nM	≥ 75%	0 to 25%		
CS(=O)(=O)Nc1ccn(C(=O)N2CCN(Cc3ccc(C(F)(F)F)cc3N3CCC(S(C)(=O)=O)CC3)CC2)n1 [Example 209, N-(1-(4-(2-(4-(methylsulfonyl)piperidin-1-yl)-4-(trifluoromethyl)benzyl)piperazine-1-carbonyl)-1H-pyrazol-3-yl) methanesulfonamide]	≤ 100 nM	≥ 75%	0 to 25%		
Cc1ccc(CN2CCN(C(=O)n3ccc(NS(C)(=O)=O)n3)CC2)c(N2CCCC2)c1 [Example 137, N-(1-(4-(4-methyl-2-(pyrrolidin-1-yl)benzyl)piperazine-1-carbonyl)-1H-pyrazol-3-yl) methanesulfonamide]	≤ 100 nM	≥ 75%	0 to 25%	100 to 1000 nM	1000 to 10000 nM
CC(=O)Nc1ccn(C(=O)N2CCN(Cc3ccc(C(F)(F)F)cc3N3CCC(C(C)(C)O)CC3)CC2)n1 [Example 266, N-(1-(4-(2-(4-(2-hydroxypropan-2-yl)piperidin-1-yl)-4-(trifluoromethyl)benzyl)piperazine-1-carbonyl)-1H-pyrazol-3-yl)acetamide]	≤ 100 nM	≥ 75%	0 to 25%	≤ 100 nM	1000 to 10000 nM
CS(=O)(=O)Nc1ccn(C(=O)N2CCN(Cc3ccc(Cl)cc3N3CCC(F)CC3)CC2)n1 [Example 227, N-(1-(4-(4-chloro-2-(4-fluoropiperidin-1-yl)benzyl)piperazine-1-carbonyl)-1H-pyrazol-3-yl) methanesulfonamide]	≤ 100 nM	≥ 75%	0 to 25%		
CC(C)n1cc(-c2cc(CN3CCN(C(=O)n4ccc(NS(C)(=O)=O)n4)CC3)ccc2Cl)cn1 [Example 237, N-(1-(4-(4-chloro-3-(1-isopropyl-1H-pyrazol-4-yl)benzyl)piperazine-1-carbonyl)-1H-pyrazol-3-yl) methanesulfonamide]	≤ 100 nM	≥ 75%	0 to 25%		
CS(=O)(=O)Nc1ccn(C(=O)N2CCN(Cc3ccc(C(F)(F)F)cc3-c3nnco3)CC2)n1 [Example 113, N-(1-(4-(2-(1,3,4-oxadiazol-2-yl)-4-(trifluoromethyl)benzyl)piperazine-1-carbonyl)-1H-pyrazol-3-yl)methanesulfonamide]	100 to 1000 nM	≥ 75%	0 to 25%		
CS(=O)(=O)Nc1ccn(C(=O)N2CCN(Cc3ccc(N4CCOCC4)c(C(F)(F)F)c3)CC2)n1 [Example 167, N-[1-[(4-[[4-(morpholin-4-yl)-3-(trifluoromethyl)phenyl]methyl]piperazin-1-yl)carbonyl]-1H-pyrazol-3-yl] methanesulfonamide]	≤ 100 nM	≥ 75%	0 to 25%		
CS(=O)(=O)Nc1ccn(C(=O)N2CCN(Cc3ccc(C(F)(F)F)cc3N3CCN(S(C)(=O)=O)CC3)CC2)n1 [Example 173]	≤ 100 nM	≥ 75%	0 to 25%		
CS(=O)(=O)Nc1ccn(C(=O)N2CCN(Cc3ccc(C(F)(F)F)cc3N3CCN(C4CC4)CC3)CC2)n1 [Example 172, N-(1-(4-(2-(4-cyclopropylpiperazin-1-yl)-4-(trifluoromethyl)benzyl)piperazine-1-carbonyl)-1H-pyrazol-3-yl) methanesulfonamide]	≤ 100 nM	≥ 75%	0 to 25%		
CS(=O)(=O)Nc1ccn(C(=O)N2CCC3(CCCN3Cc3cc(Cl)cc(N4CCCC4)c3)CC2)n1 [Example 193, N-(1-(1-(3-chloro-5-(pyrrolidin-1-yl)benzyl)-1,8-diazaspiro[4.5]decane-8-carbonyl)-1H-pyrazol-3-yl) methanesulfonamide]	≤ 100 nM	≥ 75%	0 to 25%		
CS(=O)(=O)Nc1ccn(C(=O)N2CCN(Cc3ccc(C(F)(F)F)c(N4CCC(O)CC4)c3)CC2)n1 [Example 289, N-(1-(4-(3-(4-hydroxypiperidin-1-yl)-4-(trifluoromethyl)benzyl)piperazine-1-carbonyl)-1H-pyrazol-3-yl) methanesulfonamide]	≤ 100 nM	≥ 75%	0 to 25%		
CC(=O)Nc1ccn(C(=O)N2CCN(Cc3ccc(C(F)(F)F)cc3N3CCN4CCC[C@H]4C3)CC2)n1 [Example 267, (S)-N-(1-(4-(2-(hexahydropyrrolo[1,2-a]pyrazin-2(1H)-yl)-4-(trifluoromethyl)benzyl)piperazine-1-carbonyl)-1H-pyrazol-3-yl)acetamide]	≤ 100 nM	≥ 75%	0 to 25%	≤ 100 nM	1000 to 10000 nM
CS(=O)(=O)Nc1ccn(C(=O)N2CCN(Cc3ccc(C(F)(F)F)c(N4CCN5CCC[C@H]5C4)c3)CC2)n1 [Example 287, (S)-N-(1-(4-(3-(hexahydropyrrolo[1,2-a]pyrazin-2(1H)-yl)-4-(trifluoromethyl)benzyl)piperazine-1-carbonyl)-1H-pyrazol-3-yl) methanesulfonamide]	≤ 100 nM	≥ 75%	0 to 25%		
CS(=O)(=O)Nc1ccn(C(=O)N2CCN(Cc3cc(N4CCC4)cc(C(F)(F)F)c3)CC2)n1 [Example 192, N-(1-(4-(3-(azetidin-1-yl)-5-(trifluoromethyl)benzyl)piperazine-1-carbonyl)-1H-pyrazol-3-yl) methanesulfonamide]	≤ 100 nM	≥ 75%	0 to 25%		
Cc1cc(CN2CCCC23CCN(C(=O)n2ccc(NC(=O)C(F)F)n2)CC3)ccc1Cl [Example 257, N-(1-(1-(4-chloro-3-methylbenzyl)-1,8-diazaspiro[4.5]decane-8-carbonyl)-1H-pyrazol-3-yl)-2,2-difluoroacetamide]	≤ 100 nM	≥ 75%	0 to 25%		
CS(=O)(=O)Nc1ccn(C(=O)N2CCN(Cc3cc(C(F)(F)F)ccc3N3CCCC3)CC2)n1 [Example 180, N-(1-(4-(2-(pyrrolidin-1-yl)-5-(trifluoromethyl)benzyl)piperazine-1-carbonyl)-1H-pyrazol-3-yl) methanesulfonamide]	≤ 100 nM	≥ 75%	0 to 25%		
